Assay results from PubChem BioAssay (NCI).
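Assay format: 96-well plates, 48-hour exposure. TGI is the concentration that stops growth completely.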

Legend:
Experiment in all cases: DTP human tumour cell line panel, 48 h
CAKI-1 renal = system: CAKI-1 renal
SN12C renal = system: SN12C renal
IGROV1 ovarian = system: IGROV1 ovarian
MDA-MB-435 = system: MDA-MB-435
HCT-116 colon = system: HCT-116 colon
OVCAR-4 ovarian = system: OVCAR-4 ovarian
ACHN renal = system: ACHN renal
HCT-15 colon = system: HCT-15 colon
NCI/ADR-RES ovarian = system: NCI/ADR-RES ovarian
COLO 205 colon = system: COLO 205 colon
786-0 renal = system: 786-0 renal
SF-539 CNS = system: SF-539 CNS
RPMI-8226 leukemia = system: RPMI-8226 leukemia
SF-268 CNS = system: SF-268 CNS
HT29 colon = system: HT29 colon
OVCAR-3 ovarian = system: OVCAR-3 ovarian
HOP-92 NSCLC = system: HOP-92 NSCLC
HOP-62 NSCLC = system: HOP-62 NSCLC
TK-10 renal = system: TK-10 renal
MDA-MB-231 breast = system: MDA-MB-231 breast
SNB-75 CNS = system: SNB-75 CNS
SNB-19 CNS = system: SNB-19 CNS
SK-OV-3 ovarian = system: SK-OV-3 ovarian
A498 renal = system: A498 renal
MCF7 breast = system: MCF7 breast
M14 melanoma = system: M14 melanoma
EKVX NSCLC = system: EKVX NSCLC
PC-3 prostate = system: PC-3 prostate
NCI-H522 lung = system: NCI-H522 lung
SK-MEL-5 melanoma = system: SK-MEL-5 melanoma
SF-295 CNS = system: SF-295 CNS
T-47D breast = system: T-47D breast
LOX IMVI melanoma = system: LOX IMVI melanoma
DU-145 prostate = system: DU-145 prostate
BT-549 breast = system: BT-549 breast
SR leukemia = system: SR leukemia
HS 578T breast = system: HS 578T breast
HL-60(TB) leukemia = system: HL-60(TB) leukemia
A549 NSCLC = system: A549 NSCLC
NCI-H23 lung = system: NCI-H23 lung
UACC-257 melanoma = system: UACC-257 melanoma
SW-620 colon = system: SW-620 colon
U251 CNS = system: U251 CNS
NCI-H460 lung = system: NCI-H460 lung
MDA-N = system: MDA-N
MOLT-4 leukemia = system: MOLT-4 leukemia
UO-31 renal = system: UO-31 renal
MALME-3M melanoma = system: MALME-3M melanoma
HCC-2998 colon = system: HCC-2998 colon
UACC-62 melanoma = system: UACC-62 melanoma
RXF 393 renal = system: RXF 393 renal
KM12 colon = system: KM12 colon
OVCAR-8 ovarian = system: OVCAR-8 ovarian
SK-MEL-2 melanoma = system: SK-MEL-2 melanoma
SK-MEL-28 melanoma = system: SK-MEL-28 melanoma
OVCAR-5 ovarian = system: OVCAR-5 ovarian
CCRF-CEM leukemia = system: CCRF-CEM leukemia
NCI-H226 lung = system: NCI-H226 lung

Cc1occc1C(=S)Nc1ccc(Cl)c(C(=O)OC(C)C2CC2)c1 (stereo not drawn)
TGI (CAKI-1 renal): 48.8 µM
TGI (SN12C renal): 41.6 µM
TGI (IGROV1 ovarian): 35.2 µM
TGI (MDA-MB-435): 66.2 µM
TGI (HCT-116 colon): > 100 µM
TGI (OVCAR-4 ovarian): 40.5 µM
TGI (ACHN renal): 42 µM
TGI (HCT-15 colon): 41.2 µM
TGI (NCI/ADR-RES ovarian): 65.1 µM
TGI (COLO 205 colon): 51.3 µM
TGI (786-0 renal): 52.5 µM
TGI (SF-539 CNS): 71.6 µM
TGI (RPMI-8226 leukemia): 60.1 µM
TGI (SF-268 CNS): 59.3 µM
TGI (HT29 colon): 49 µM
TGI (OVCAR-3 ovarian): 35.3 µM
TGI (HOP-92 NSCLC): 51.5 µM
TGI (HOP-62 NSCLC): 57.7 µM
TGI (TK-10 renal): > 100 µM
TGI (MDA-MB-231 breast): 45.7 µM
TGI (SNB-75 CNS): 68.9 µM
TGI (SNB-19 CNS): 39 µM
TGI (SK-OV-3 ovarian): 50.5 µM
TGI (A498 renal): 48.2 µM
TGI (MCF7 breast): 57.3 µM
TGI (M14 melanoma): 53.4 µM
TGI (EKVX NSCLC): 54.9 µM
TGI (PC-3 prostate): 41.3 µM
TGI (NCI-H522 lung): 32.9 µM
TGI (SK-MEL-5 melanoma): 31.8 µM
TGI (SF-295 CNS): 39 µM
TGI (T-47D breast): > 100 µM
TGI (LOX IMVI melanoma): 49.5 µM
TGI (DU-145 prostate): > 100 µM
TGI (BT-549 breast): 54.5 µM
TGI (SR leukemia): 68.2 µM
TGI (HS 578T breast): 69.1 µM
TGI (HL-60(TB) leukemia): 54.1 µM
TGI (A549 NSCLC): > 100 µM
TGI (NCI-H23 lung): 40.1 µM
TGI (UACC-257 melanoma): > 100 µM
TGI (SW-620 colon): > 100 µM
TGI (U251 CNS): 70.5 µM
TGI (NCI-H460 lung): > 100 µM
TGI (MDA-N): 38.4 µM
TGI (MOLT-4 leukemia): 57.5 µM
TGI (UO-31 renal): 30.5 µM
TGI (MALME-3M melanoma): 36.4 µM
TGI (HCC-2998 colon): 39.5 µM
TGI (UACC-62 melanoma): 71.1 µM
TGI (RXF 393 renal): 39.4 µM
TGI (KM12 colon): 39.9 µM
TGI (OVCAR-8 ovarian): 43.2 µM
TGI (SK-MEL-2 melanoma): 38.4 µM
TGI (SK-MEL-28 melanoma): > 100 µM
TGI (OVCAR-5 ovarian): 61.2 µM
TGI (CCRF-CEM leukemia): > 100 µM
TGI (NCI-H226 lung): 33.6 µM
